From patent publication US9809574B2, “Isoindoline or isoquinoline compounds, a process for their preparation and pharmaceutical compositions containing them” (LES LABORATOIRES SERVIER, priority 2013, dated 2017)
Where a name gives a salt, the structure may show the parent alone.

Assays:
[1] = system: RS4; 11 leukaemia cell line; test: In vitro cytotoxicity, Microculture Tetrazolium Assay (MTT); type: cell-based; settings: Homo sapiens, 11 cells exposed for 48 hours
Description: The cytotoxicity studies were carried out on the RS4; 11 leukaemia cell line and on H146 small Cell Lung Carcinoma cell line. The cells are distributed onto microplates and exposed to the test compounds for 48 hours. The cell viability is then quantified by a colorimetric assay, the Microculture Tetrazolium Assay (Cancer Res., 1987, 47, 939-942).

Bcl-2 protein = Bcl-2 protein (histag-Bcl-2, UniProtKB P10415) (Homo sapiens (Human), UniProt P10415); test: Inhibition of Bcl-2 by the fluorescence polarisation technique; type: binding; settings: fluorescence polarisation test; incubation for 2 hours; read-out: IC50 (nM) Bcl-2 FP
From the text: For partial inhibitors, the percentage fluorescence polarisation inhibition for a given concentration of the test compound is indicated.

Chain of Bcl-2 protein (P10415 whole entry): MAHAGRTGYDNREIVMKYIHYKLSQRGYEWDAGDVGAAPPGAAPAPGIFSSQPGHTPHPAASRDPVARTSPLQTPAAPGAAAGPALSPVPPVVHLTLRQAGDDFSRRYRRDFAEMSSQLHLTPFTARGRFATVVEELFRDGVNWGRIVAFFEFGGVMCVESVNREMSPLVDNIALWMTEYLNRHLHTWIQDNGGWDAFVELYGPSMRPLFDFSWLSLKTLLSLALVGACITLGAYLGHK

Row | SMILES | IC50 [1] | IC50 (Bcl-2 protein)
1 | CN(C(=O)c1cc(-c2cc3c(cc2C(=O)N2Cc4ccccc4C[C@H]2CN2CCOCC2)CN(C(=O)Oc2ccccc2)C3)n2c1CCCC2)c1ccc(O)cc1 [Example 16, Phenyl 5-{1-[(4-hydroxyphenyl)(methyl)carbamoyl]-5,6,7,8-tetrahydroindolizin-3-yl}-6-[(3S)-3-(morpholin-4-ylmethyl)-1,2,3,4-tetrahydroisoquinoline-2-carbonyl]-2,3-dihydro-1H-isoindole-2-carboxylate hydrochloride] | 27 nM | 6 nM
2 | Cc1c(C(=O)N(C)c2ccc(O)cc2)cc(-c2cc3c(cc2C(=O)N2Cc4ccccc4C[C@H]2C)CN(C(=O)Oc2ccccc2)C3)n1C [Example 63, Phenyl 5-{4-[(4-hydroxyphenyl)(methyl)carbamoyl]-1,5-dimethyl-1H-pyrrol-2-yl}-6-[(3R)-3-methyl-1,2,3,4-tetrahydroisoquinoline-2-carbonyl]-2,3-dihydro-1H-isoindole-2-carboxylate] | 12 nM | 4.4 nM
3 | C[C@@H]1Cc2ccccc2CN1C(=O)c1cc2c(cc1-c1cc(C(=O)N(C)c3ccc(O)cc3)c3ccccn13)CN(C(=O)COc1ccccc1)C2 [Example 167, N-(4-Hydroxyphenyl)-N-methyl-3-{6-[(3R)-3-methyl-1,2,3,4-tetrahydroisoquinoline-2-carbonyl]-2-(2-phenoxyacetyl)-2,3-dihydro-1H-isoindol-5-yl}indolizine-1-carboxamide] | 20 nM | 6.5 nM
4 | CN(C(=O)c1cc(-c2cc3c(cc2C(=O)N2Cc4ccccc4C[C@H]2CN2CCOCC2)CN(C(=O)Cc2cccnc2)C3)n2c1CCCC2)c1ccc(O)cc1 [Example 42, N-(4-Hydroxyphenyl)-N-methyl-3-{6-[(3S)-3-(morpholin-4-ylmethyl)-1,2,3,4-tetrahydroisoquinoline-2-carbonyl]-2-[2-(pyridin-3-yl)acetyl]-2,3-dihydro-1H-isoindol-5-yl}-5,6,7,8-tetrahydroindolizine-1-carboxamide] | > 150 nM | 38 nM
5 | Cc1c(C(=O)N(C)c2ccc(O)cc2)cc(-c2cc3c(cc2C(=O)N2Cc4ccccc4C[C@H]2CN(C)C)CN(C(=O)C(F)(F)F)CC3)n1C [Example 782, 5-{7-[(3S)-3-[(Dimethylamino)methyl]-1,2,3,4-tetrahydroisoquinoline-2-carbonyl]-2-(trifluoroacetyl)-1,2,3,4-tetrahydroisoquinolin-6-yl}-N-(4-hydroxyphenyl)-N,1,2-trimethyl-1H-pyrrole-3-carboxamide] | 112 nM | 51 nM
6 | Cc1c(C(=O)N(C)c2ccc(O)cc2)cc(-c2cc3c(cc2C(=O)N2Cc4ccccc4C[C@H]2C)CN(C(=O)CC2CCCCC2)CC3)n1C [Example 795, 5-[2-(2-Cyclohexylacetyl)-7-[(3R)-3-methyl-1,2,3,4-tetrahydroisoquinoline-2-carbonyl]-1,2,3,4-tetrahydroisoquinolin-6-yl]-N-(4-hydroxyphenyl)-N,1,2-trimethyl-1H-pyrrole-3-carboxamide] | 32 nM | 5.3 nM
7 | C[C@@H]1Cc2ccccc2CN1C(=O)c1cc2c(cc1-c1cc(C(=O)N(C)c3ccc(O)cc3)c3n1CCCC3)CCN(C(=O)N1CC(c3ccccc3)C1)C2 [Example 84, N-(4-Hydroxyphenyl)-N-methyl-3-{7-[(3R)-3-methyl-1,2,3,4-tetrahydroisoquinoline-2-carbonyl]-2-(3-phenylazetidine-1-carbonyl)-1,2,3,4-tetrahydroisoquinolin-6-yl}-5,6,7,8-tetrahydroindolizine-1-carboxamide] | 33 nM | 4.9 nM
8 | Cc1c(C(=O)N(C)c2ccc(O)cc2)cc(-c2cc3c(cc2C(=O)N2Cc4ccccc4C[C@H]2CN2CCOCC2)CN(C(=O)NC2CCCCC2)CC3)n1C [Example 793, N-Cyclohexyl-6-{4-[(4-hydroxyphenyl)(methyl)carbamoyl]-1,5-dimethyl-1H-pyrrol-2-yl}-7-[(3S)-3-(morpholin-4-ylmethyl)-1,2,3,4-tetrahydroisoquinoline-2-carbonyl]-1,2,3,4-tetrahydroisoquinoline-2-carboxamide] | 92 nM | 4.4 nM
9 | Cc1c(C(=O)N(C)c2ccccc2)cc(-c2cc3c(cc2C(=O)N2Cc4ccccc4C[C@H]2CN2CCN(C)CC2)CN(C(=O)Oc2cccc(C(=O)O)c2)CC3)n1C [Example 735, 3-(6-{1,5-Dimethyl-4-[methyl(phenyl)carbamoyl]-1H-pyrrol-2-yl}-7-[(3S)-3-[(4-methylpiperazin-1-yl)methyl]-1,2,3,4-tetrahydroisoquinoline-2-carbonyl]-1,2,3,4-tetrahydroisoquinoline-2-carbonyloxy)benzoic acid] | > 150 nM | 12 nM
10 | COc1ccc(CC(=O)N2Cc3cc(C(=O)N4Cc5ccccc5C[C@H]4C)c(-c4cc(C(=O)N(C)c5ccc(O)cc5)c(C)n4C)cc3C2)cc1 [Example 101, N-(4-Hydroxyphenyl)-5-{2-[2-(4-methoxyphenyl)acetyl]-6-[(3R)-3-methyl-1,2,3,4-tetrahydroisoquinoline-2-carbonyl]-2,3-dihydro-1H-isoindol-5-yl}-N,1,2-trimethyl-1H-pyrrole-3-carboxamide] | 31 nM | 2.6 nM
11 | Cc1c(C(=O)N(C)c2ccccc2)cc(-c2cc3c(cc2C(=O)N2Cc4ccccc4C[C@H]2CN2CCOCC2)CN(C(=O)Oc2ccc4cc[nH]c4c2)CC3)n1C [Example 629, 1H-Indol-6-yl 6-{1,5-dimethyl-4-[methyl(phenyl)carbamoyl]-1H-pyrrol-2-yl}-7-[(3S)-3-(morpholin-4-ylmethyl)-1,2,3,4-tetrahydroisoquinoline-2-carbonyl]-1,2,3,4-tetrahydroisoquinoline-2-carboxylate] | 9 nM | 7.2 nM
12 | Cc1c(C(=O)N(C)c2ccccc2)cc(-c2cc3c(cc2C(=O)N2Cc4ccccc4C[C@H]2CN2CCOCC2)CN(C(=O)Cc2ccc(C#N)cc2)CC3)n1C [Example 151, 5-{2-[2-(4-Cyanophenyl)acetyl]-7-[(3S)-3-(morpholin-4-ylmethyl)-1,2,3,4-tetrahydroisoquinoline-2-carbonyl]-1,2,3,4-tetrahydroisoquinolin-6-yl}-N,1,2-trimethyl-N-phenyl-1H-pyrrole-3-carboxamide] | 19 nM | 5.3 nM
13 | Cc1c(C(=O)N(C)c2ccc(O)cc2)cc(-c2cc3c(cc2C(=O)N2Cc4ccccc4C[C@H]2C)CN(C(=O)Oc2cccc(CCC(=O)N(C)C)c2)CC3)n1C [Example 776, 3-[2-(Dimethylcarbamoyl)ethyl]phenyl 6-{4-[(4-hydroxyphenyl)(methyl)carbamoyl]-1,5-dimethyl-1H-pyrrol-2-yl}-7-[(3R)-3-methyl-1,2,3,4-tetrahydroisoquinoline-2-carbonyl]-1,2,3,4-tetrahydroisoquinoline-2-carboxylate] | 1.1 nM | 2.2 nM
14 | C[C@@H]1Cc2ccccc2CN1C(=O)c1cc2c(cc1-c1cc(C(=O)N(C)c3ccc(O)cc3)c3n1CCCC3)CN(C(=O)N1CCC(c3ccccc3)C1)C2 (stereo partly drawn) [Example 66, N-(4-Hydroxyphenyl)-N-methyl-3-{6-[(3R)-3-methyl-1,2,3,4-tetrahydroisoquinoline-2-carbonyl]-2-(3-phenylpyrrolidine-1-carbonyl)-2,3-dihydro-1H-isoindol-5-yl}-5,6,7,8-tetrahydroindolizine-1-carboxamide] | 80 nM | 16 nM
15 | C[C@@H]1Cc2ccccc2CN1C(=O)c1cc2c(cc1-c1cc(C(=O)N(C)c3ccc(O)cc3)c3n1CCCC3)CCN(C(=O)Cc1cccc(NCCN(C)C)c1)C2 [Example 123, 3-{2-[2-(3-{[2-(Dimethylamino)ethyl]amino}phenyl)acetyl]-7-[(3R)-3-methyl-1,2,3,4-tetrahydroisoquinoline-2-carbonyl]-1,2,3,4-tetrahydroisoquinolin-6-yl}-N-(4-hydroxyphenyl)-N-methyl-5,6,7,8-tetrahydroindolizine-1-carboxamide] | 8.3 nM | 5.3 nM
16 | Cc1c(C(=O)N(C)c2ccc(O)cc2)cc(-c2cc3c(cc2C(=O)N2Cc4ccccc4C[C@H]2C)CN(C(=O)[C@@H](N)c2ccccc2)C3)n1C [Example 173, 5-(2-[(2S)-2-Amino-2-phenylacetyl]-6-{[(3R)-3-methyl-3,4-dihydroisoquinolin-2(1H)-yl]carbonyl}-2,3-dihydro-1H-isoindol-5-yl)-N-(4-hydroxyphenyl)-N,1,2-trimethyl-1H-pyrrole-3-carboxamide] | > 600 nM | 55 nM
17 | CN(C(=O)c1cc(-c2cc3c(cc2C(=O)N2Cc4ccccc4C[C@H]2CN2CCOCC2)CN(S(=O)(=O)Cc2ccccc2)CC3)n2c1CCCC2)c1ccc(O)cc1 [Example 4, N-(4-Hydroxyphenyl)-N-methyl-3-{7-[(3S)-3-(morpholin-4-ylmethyl)-1,2,3,4-tetrahydroisoquinoline-2-carbonyl]-2-phenylmethanesulfonyl-1,2,3,4-tetrahydroisoquinolin-6-yl}-5,6,7,8-tetrahydroindolizine-1-carboxamide] | 71 nM | 9.2 nM
18 | C[C@@H]1Cc2ccccc2CN1C(=O)c1cc2c(cc1-c1cc(C(=O)N(C)c3ccc(O)cc3)c3n1CCCC3)CN(Cc1ccccc1)C2 [Example 33, 3-{2-Benzyl-6-[(3R)-3-methyl-1,2,3,4-tetrahydroisoquinoline-2-carbonyl]-2,3-dihydro-1H-isoindol-5-yl}-N-(4-hydroxyphenyl)-N-methyl-5,6,7,8-tetrahydroindolizine-1-carboxamide] | 460 nM | 33 nM
19 | CN(C(=O)c1cc(-c2cc3c(cc2C(=O)N2Cc4ccccc4C[C@H]2CN2CCOCC2)CN(S(=O)(=O)c2ccccc2)CC3)n2c1CCCC2)c1ccc(O)cc1 [Example 3, 3-[2-(Benzenesulfonyl)-7-[(3S)-3-(morpholin-4-ylmethyl)-1,2,3,4-tetrahydroisoquinoline-2-carbonyl]-1,2,3,4-tetrahydroisoquinolin-6-yl]-N-(4-hydroxyphenyl)-N-methyl-5,6,7,8-tetrahydroindolizine-1-carboxamide] | 236 nM | 18 nM
